Several values for one entry are separate records, joined by “and”; a condition that tells them apart may be missing. Equal values may be shown once.
System: CTL cells (CD45^+CD8^+ T cells) in tumor-infiltrating lymphocytes
Assay: Example 2: flow cytometry, percentage of CTL cells in TILs
Assay type: in vivo, Mus musculus
Description: Mice were sacrificed by CO2 euthanasia at the end of the study duration, and the connective tissue around tumor was resected. The tumor samples were then weighed and cut equally into three sections if the tumor weight over 400 mg. The tumor tissue was prepared for the isolation of tumor-infiltrating lymphocytes (TILs). The rest of one section was fixed in 10% formaldehyde and embedded in paraffin; the other was stored at a temperature below −70° C.
The tumor samples were dissected into smaller fragments using scalpels and then digested with a cocktail of collagenase, DNase I, and Hyaluronidase (Collagenase #C5138, DNase I #D5025, Hyaluronidase #H6254, SigmaAldrich) for at least 2 hours.
Cells were stained with the fluorescently conjugated surface antibodies and incubated for 30 minutes at 4° C., and then resuspended in staining buffer for flow cytometric analysis. Flow cytometry was done using a Navios EX Flow Cytometer (Beckman Coulter). Data were analyzed using the Kaluza Analysis Software (Beckman Coulter).

C[C@H](OP(=O)(N1CC1)N1CC1)c1ccc([N+](=O)[O-])c(Oc2cccc(C(=O)N(C)C)c2)c1 [OBI-3424, (S)-1-(3-(3-N,N-dimethylaminocarbonyl)phenoxyl-4-mtrophenyl)-1-ethyl-N,N′-bis(ethylene)phosphoramidate]
CD69^+ CTL cells (CD45^+ CD8^+CD69^+) Total % (G2: 0.3 mg/kg, group mean): 20.23%
CTL cells (CD45^+CD8^+) CD45^+ Gated % (G2: 0.3 mg/kg, group mean): 60.54%
CTL cells (CD45^+CD8^+) Cell count (×10^5) (G2: 0.3 mg/kg, group mean): 55.19 ×10^5
CTL cells (CD45^+CD8^+) Total % (G2: 0.3 mg/kg, group mean): 26.12%
Granzyme B^+ CTL cells (CD45^+ CD8^+GrB+) CTL Gated % (G2: 0.3 mg/kg, group mean): 90.76%
Granzyme B^+ CTL cells (CD45^+ CD8^+GrB+) Cell count (×10^5) (G2: 0.3 mg/kg, group mean): 61.54 ×10^5
Granzyme B^+ CTL cells (CD45^+ CD8^+GrB+) Total % (G2: 0.3 mg/kg, group mean): 26.31%
IFN-γ^+ CTL cells (CD45^+ CD8^+ IFN-γ^+) CTL Gated % (G2: 0.3 mg/kg, group mean): 0.89%
IFN-γ^+ CTL cells (CD45^+ CD8^+ IFN-γ^+) Cell count (×10^5) (G2: 0.3 mg/kg, group mean): 0.47 ×10^5
IFN-γ^+ CTL cells (CD45^+ CD8^+ IFN-γ^+) Total % (G2: 0.3 mg/kg, group mean): 0.20%
PD-1^+ CTL cells (CD45^+CD8^+ PD-1^+) CTL Gated % (G2: 0.3 mg/kg, group mean): 75.96%
PD-1^+ CTL cells (CD45^+CD8^+ PD-1^+) Cell count (×10^5) (G2: 0.3 mg/kg, group mean): 42.52 ×10^5
PD-1^+ CTL cells (CD45^+CD8^+ PD-1^+) Total % (G2: 0.3 mg/kg, group mean): 18.42%
CD25^+ CTL cells (CD45^+ CD8^+CD25^+) Cell count (×10^5) (G2: 0.3 mg/kg, individual mice): 1.91 ×10^5 and 3.89 ×10^5 and 7.72 ×10^5 and 0.35 ×10^5 and 3.13 ×10^5 and 0.58 ×10^5
CD25^+ CTL cells (CD45^+CD8^+ CD25^+) CTL Gated % (G2: 0.3 mg/kg, individual mice): 11.79% and 5.81% and 3.87% and 3.93% and 4.86% and 3.31%
CD25^+ CTL cells (CD45^+CD8^+ CD25^+) Total % (G2: 0.3 mg/kg, individual mice): 0.98% and 1.90% and 1.43% and 1.62% and 1.27% and 0.80%
CD69^+ CTL cells (CD45^+ CD8^+CD69^+) CTL Gated % (G2: 0.3 mg/kg, individual mice): 62.46% and 73.01% and 61.79% and 85.14% and 68.69% and 67.19%
CD69^+ CTL cells (CD45^+ CD8^+CD69^+) Cell count (×10^5) (G2: 0.3 mg/kg, individual mice): 10.13 ×10^5 and 48.79 ×10^5 and 123.34 ×10^5 and 7.53 ×10^5 and 44.17 ×10^5 and 11.85 ×10^5
CD69^+ CTL cells (CD45^+ CD8^+CD69^+) Total % (G2: 0.3 mg/kg, individual mice): 5.21% and 23.86% and 22.84% and 35.19% and 17.92% and 16.34%
CTL cells (CD45^+CD8^+) CD45^+ Gated % (G2: 0.3 mg/kg, individual mice): 43.92% and 72.25% and 73.64% and 66.97% and 60.34% and 46.12%
CTL cells (CD45^+CD8^+) Cell count (×10^5) (G2: 0.3 mg/kg, individual mice): 15.97 ×10^5 and 54.79 ×10^5 and 171.72 ×10^5 and 9.75 ×10^5 and 66.26 ×10^5 and 12.67 ×10^5
CTL cells (CD45^+CD8^+) Total % (G2: 0.3 mg/kg, individual mice): 8.21% and 26.79% and 31.80% and 45.54% and 26.88% and 17.47%
Granzyme B^+ CTL cells (CD45^+ CD8^+GrB+) CTL Gated % (G2: 0.3 mg/kg, individual mice): 66.16% and 97.44% and 95.50% and 85.88% and 99.84% and 99.74%
Granzyme B^+ CTL cells (CD45^+ CD8^+GrB+) Cell count (×10^5) (G2: 0.3 mg/kg, individual mice): 11.61 ×10^5 and 69.08 ×10^5 and 196.18 ×10^5 and 6.59 ×10^5 and 69.09 ×10^5 and 16.66 ×10^5
Granzyme B^+ CTL cells (CD45^+ CD8^+GrB+) Total % (G2: 0.3 mg/kg, individual mice): 5.97% and 33.78% and 36.33% and 30.78% and 28.03% and 22.98%
IFN-γ^+ CTL cells (CD45^+ CD8^+ IFN-γ^+) CTL Gated % (G2: 0.3 mg/kg, individual mice): 2.04% and 0.66% and 0.54% and 0.36% and 1.10% and 0.64%
IFN-γ^+ CTL cells (CD45^+ CD8^+ IFN-γ^+) Cell count (×10^5) (G2: 0.3 mg/kg, individual mice): 0.35 ×10^5 and 0.47 ×10^5 and 1.08 ×10^5 and 0.03 ×10^5 and 0.76 ×10^5 and 0.11 ×10^5
IFN-γ^+ CTL cells (CD45^+ CD8^+ IFN-γ^+) Total % (G2: 0.3 mg/kg, individual mice): 0.18% and 0.23% and 0.20% and 0.13% and 0.31% and 0.15%
PD-1^+ CTL cells (CD45^+CD8^+ PD-1^+) CTL Gated % (G2: 0.3 mg/kg, individual mice): 95.86% and 68.60% and 72.47% and 49.67% and 96.18% and 73.00%
PD-1^+ CTL cells (CD45^+CD8^+ PD-1^+) Cell count (×10^5) (G2: 0.3 mg/kg, individual mice): 15.31 ×10^5 and 37.59 ×10^5 and 124.42 ×10^5 and 4.84 ×10^5 and 63.74 ×10^5 and 9.24 ×10^5
PD-1^+ CTL cells (CD45^+CD8^+ PD-1^+) Total % (G2: 0.3 mg/kg, individual mice): 7.87% and 18.38% and 23.04% and 22.62% and 25.86% and 12.75%
CD25^+ CTL cells (CD45^+ CD8^+CD25^+) Cell count (×10^5) (G3: 1 mg/kg, group mean): 1.33 ×10^5
CD25^+ CTL cells (CD45^+CD8^+ CD25^+) CTL Gated % (G3: 1 mg/kg, group mean): 5.25%
CD25^+ CTL cells (CD45^+CD8^+ CD25^+) Total % (G3: 1 mg/kg, group mean): 1.71%
CD69^+ CTL cells (CD45^+ CD8^+CD69^+) CTL Gated % (G3: 1 mg/kg, group mean): 71.92%
CD69^+ CTL cells (CD45^+ CD8^+CD69^+) Cell count (×10^5) (G3: 1 mg/kg, group mean): 18.65 ×10^5
CD69^+ CTL cells (CD45^+ CD8^+CD69^+) Total % (G3: 1 mg/kg, group mean): 25.02%
CTL cells (CD45^+CD8^+) CD45^+ Gated % (G3: 1 mg/kg, group mean): 55.81%
CTL cells (CD45^+CD8^+) Cell count (×10^5) (G3: 1 mg/kg, group mean): 25.42 ×10^5
CTL cells (CD45^+CD8^+) Total % (G3: 1 mg/kg, group mean): 33.50%
Granzyme B^+ CTL cells (CD45^+ CD8^+GrB+) CTL Gated % (G3: 1 mg/kg, group mean): 88.17%
Granzyme B^+ CTL cells (CD45^+ CD8^+GrB+) Cell count (×10^5) (G3: 1 mg/kg, group mean): 23.13 ×10^5
Granzyme B^+ CTL cells (CD45^+ CD8^+GrB+) Total % (G3: 1 mg/kg, group mean): 30.40%
IFN-γ^+ CTL cells (CD45^+ CD8^+ IFN-γ^+) CTL Gated % (G3: 1 mg/kg, group mean): 0.63%
IFN-γ^+ CTL cells (CD45^+ CD8^+ IFN-γ^+) Cell count (×10^5) (G3: 1 mg/kg, group mean): 0.15 ×10^5
IFN-γ^+ CTL cells (CD45^+ CD8^+ IFN-γ^+) Total % (G3: 1 mg/kg, group mean): 0.21%
PD-1^+ CTL cells (CD45^+CD8^+ PD-1^+) CTL Gated % (G3: 1 mg/kg, group mean): 75.93%
PD-1^+ CTL cells (CD45^+CD8^+ PD-1^+) Cell count (×10^5) (G3: 1 mg/kg, group mean): 19.17 ×10^5
PD-1^+ CTL cells (CD45^+CD8^+ PD-1^+) Total % (G3: 1 mg/kg, group mean): 24.78%
CD25^+ CTL cells (CD45^+ CD8^+CD25^+) Cell count (×10^5) (G3: 1 mg/kg, individual mice): 0.43 ×10^5 and 1.29 ×10^5 and 0.89 ×10^5 and 1.55 ×10^5 and 1.91 ×10^5 and 1.90 ×10^5
CD25^+ CTL cells (CD45^+CD8^+ CD25^+) CTL Gated % (G3: 1 mg/kg, individual mice): 3.38% and 2.85% and 4.07% and 7.29% and 6.05% and 7.84%
CD25^+ CTL cells (CD45^+CD8^+ CD25^+) Total % (G3: 1 mg/kg, individual mice): 1.49% and 1.02% and 1.26% and 1.57% and 2.57% and 2.34%
CD69^+ CTL cells (CD45^+ CD8^+CD69^+) CTL Gated % (G3: 1 mg/kg, individual mice): 80.80% and 70.50% and 83.69% and 59.32% and 76.33% and 60.89%
CD69^+ CTL cells (CD45^+ CD8^+CD69^+) Cell count (×10^5) (G3: 1 mg/kg, individual mice): 10.34 ×10^5 and 31.84 ×10^5 and 18.33 ×10^5 and 12.61 ×10^5 and 24.09 ×10^5 and 14.69 ×10^5
CD69^+ CTL cells (CD45^+ CD8^+CD69^+) Total % (G3: 1 mg/kg, individual mice): 35.67% and 25.23% and 25.96% and 12.76% and 32.38% and 18.14%
CTL cells (CD45^+CD8^+) CD45^+ Gated % (G3: 1 mg/kg, individual mice): 66.02% and 53.39% and 62.97% and 38.03% and 65.33% and 49.11%
CTL cells (CD45^+CD8^+) Cell count (×10^5) (G3: 1 mg/kg, individual mice): 12.68 ×10^5 and 40.30 ×10^5 and 21.83 ×10^5 and 22.61 ×10^5 and 32.02 ×10^5 and 23.10 ×10^5
CTL cells (CD45^+CD8^+) Total % (G3: 1 mg/kg, individual mice): 31.93% and 30.92% and 22.88% and 43.04% and 28.52%
Granzyme B^+ CTL cells (CD45^+ CD8^+GrB+) CTL Gated % (G3: 1 mg/kg, individual mice): 90.46% and 99.18% and 89.16% and 96.01% and 95.94% and 58.25%
Granzyme B^+ CTL cells (CD45^+ CD8^+GrB+) Cell count (×10^5) (G3: 1 mg/kg, individual mice): 11.76 ×10^5 and 39.25 ×10^5 and 20.44 ×10^5 and 21.59 ×10^5 and 31.75 ×10^5 and 14.00 ×10^5
Granzyme B^+ CTL cells (CD45^+ CD8^+GrB+) Total % (G3: 1 mg/kg, individual mice): 40.55% and 31.10% and 28.95% and 21.85% and 17.29%
IFN-γ^+ CTL cells (CD45^+ CD8^+ IFN-γ^+) CTL Gated % (G3: 1 mg/kg, individual mice): 0.87% and 0.63% (2×) and 0.85% and 0.20% and 0.61%
IFN-γ^+ CTL cells (CD45^+ CD8^+ IFN-γ^+) Cell count (×10^5) (G3: 1 mg/kg, individual mice): 0.11 ×10^5 and 0.25 ×10^5 and 0.20 ×10^5 and 0.1 ×10^5 and 0.07 ×10^5 and 0.15 ×10^5
IFN-γ^+ CTL cells (CD45^+ CD8^+ IFN-γ^+) Total % (G3: 1 mg/kg, individual mice): 0.39% and 0.20% and 0.28% and 0.14% and 0.09% and 0.18%
PD-1^+ CTL cells (CD45^+CD8^+ PD-1^+) CTL Gated % (G3: 1 mg/kg, individual mice): 58.64% and 62.98% and 80.96% and 86.30% and 72.97% and 93.75%
PD-1^+ CTL cells (CD45^+CD8^+ PD-1^+) Cell count (×10^5) (G3: 1 mg/kg, individual mice): 7.44 ×10^5 and 25.38 ×10^5 and 17.68 ×10^5 and 19.51 ×10^5 and 23.37 ×10^5 and 21.66 ×10^5
PD-1^+ CTL cells (CD45^+CD8^+ PD-1^+) Total % (G3: 1 mg/kg, individual mice): 25.64% and 20.11% and 25.04% and 19.75% and 31.41% and 26.74%

Reference: US20240216401A1, “COMBINATION THERAPY BY USING AKR1C3-ACTIVATED COMPOUND WITH IMMUNE CHECKPOINT INHIBITOR” (OBI Pharma, Inc., priority 2021, published 2024)
